Laboratory results: patent US6458746B1, “Plant growth regulating formulations” (BASF Aktiengesellschaft, priority 1998, dated 2002)

Assays:
Type in all cases: in vivo
[1] = system: small grains and rice (wheat, barley, oats, rye, rice); assay: Shoot length reduction in small grains and rice (statements across species); conditions: for activity in the other plant species compared with wheat: plant species other than wheat; for shoot length reduction compared with compounds II to V: Examples 1 and 2; for dosages needed to obtain results equivalent to compounds VI, VII, and IX: in these plant species, applied in commercial formulations; for activity-enhancing effects of ethoxylated castor oil R 15: barley and wheat, Example 5
Procedure: (§1) Unless otherwise noted, the growth regulating proerties of different compounds in different formulations were determined under greenhouse conditions as follows: […]
(§2) Test plants were grown in plastic pots of approximately 12.5 cm in diameter in a substrate provided with sufficient nutrients and water. At an appropriate shoot length the plants were treated with aqueous sprays of the formulations. The growth-regulating action observed was confirmed at the end of the experiment by measuring the height of the plants. The results obtained were compared with the growth height of the untreated plants.

wheat = assay: Greenhouse shoot length test, wheat; conditions: for dosages of active ingredient needed to obtain results equivalent to compounds VI, VII, and IX: in wheat; for Shoot length reduction [activity, relative to control] in wheat: 1% formulations in cyclohexanone: Emulan EL = 4:1; for Shoot length Wheat [% of control]: 1% formulations in Atlas G 1086
Procedure: as §1, §2
(§3) Assays with wheat, barley, oat, and rye plants were carried out as described above. The aqueous spray solutions were prepared as follows: […]

rye = assay: Greenhouse shoot length test, rye; conditions: 1% formulations in cyclohexanone: Emulan EL = 4:1; further: key: 0: no effect; +: low activity; ++: intermediate activity; +++: high activity
Procedure: as §1, §2

barley = assay: Greenhouse shoot length test, barley; conditions: for Shoot length reduction [activity, relative to control] in barley: 1% formulations in cyclohexanone: Emulan EL = 4:1; for Shoot length Barley [% of control]: 1% formulations in Atlas G 1086; on Shoot length reduction [activity, relative to control] in barley: key: 0: no effect; +: low activity; ++: intermediate activity; +++: high activity
Procedure: as §1, §2, §3

oats = assay: Greenhouse shoot length test, oats; conditions: 1% formulations in cyclohexanone: Emulan EL = 4:1; further: key: 0: no effect; +: low activity; ++: intermediate activity; +++: high activity
Procedure: as §1, §2

rice = assay: Greenhouse shoot length test, rice; conditions: 1% formulations in cyclohexanone: Emulan EL = 4:1; further: key: 0: no effect; +: low activity; ++: intermediate activity; +++: high activity
Procedure: as §1, §2

[2] = system: spring wheat (cv. “Ralle”); assay: Shoot height reduction in spring wheat, synergistic combinations
Procedure: as §1, §2
(§4) To show the synergistic effects of formulations in accordance with the instant invention together with further growth regulating agents, formulations in accordance with the invention were prepared and additional active ingredients added.
Shoot height reduction in spring wheat (cv. “Ralle”) 21 days after treatment with combinations of standard compound S4 and compound VII
Shoot height reduction in spring wheat (cv. “Ralle”) 13 days after treatment with combinations of standard compound S5 and compound VII

[3] = system: spring barley (cv. “Alexis”); assay: Shoot height reduction in spring barley, synergistic combinations; conditions: 20 days after treatment
Procedure: as §1, §2, §4
Shoot height reduction in spring barley (cv. “Alexis”) 20 days after treatment with combinations of standard compound S2 and compound VII
Shoot height reduction in spring barley (cv. “Alexis”) 20 days after treatment with combinations of standard compound S4 and compound VII

[4] = system: rice seedlings [cvs. “Koshihikari” (tall), “Tan-ginbozu” (dwarf), “Waito C” (dwarf)]; assay: Shoot growth of rice seedlings, combinations with GA3; conditions: 7 days after treatment, 1 kg/ha ammonium sulphate added; for Shoot growth Waito C [% of Control]: 100% = 8.7 cm; for Shoot growth Tan-ginbozu [% of Control]: 100% = 9.4 cm; for Shoot growth Koshihikari [% of Control]: 100% = 17.4 cm
Procedure: as §1, §2
The synergizing effect of compound VII on shoot elongation in rice is shown in the results of Example 7.
Enhanced shoot growth of rice seedlings [cvs. “Koshihikari” tall), “Tan-ginbozu” (dwarf), “Waito C” (dwarf)] 7 days after treatment with combinations of compound 6 with GA3^d

[5] = 750 g/ha ai, adjuvant R 15 500 g/ha
[6] = 250 g/ha ai, adjuvant R 15 500 g/ha

## C[N+]1(C)CCCCC1 [S3, mepiquat chloride, reference compound]
[1]
  activity in the other plant species compared with wheat: significantly less active
wheat
  dosages of active ingredient needed to obtain results equivalent to compounds VI, VII, and IX: approximately 100 times higher

## Dichloromethano-16,17-dihydro-GA5-13-acetate [Comp. V]
rye
  Shoot length reduction [activity, relative to control] in rye: +
barley
  Shoot length reduction [activity, relative to control] in barley: 0
barley; 1.6 g/ha ai
  Shoot length Barley [% of control]: 99 % of control
barley; 3.1 g/ha ai
  Shoot length Barley [% of control]: 97 % of control
barley; 6.3 g/ha ai
  Shoot length Barley [% of control]: 82 % of control
barley; 12.5 g/ha ai
  Shoot length Barley [% of control]: 76 % of control
wheat
  Shoot length reduction [activity, relative to control] in wheat: 0
wheat; 1.6 g/ha ai
  Shoot length Wheat [% of control]: 101 % of control
wheat; 3.1 g/ha ai
  Shoot length Wheat [% of control]: 95 % of control
wheat; 6.3 g/ha ai
  Shoot length Wheat [% of control]: 84 % of control
wheat; 12.5 g/ha ai
  Shoot length Wheat [% of control]: 75 % of control
oats
  Shoot length reduction [activity, relative to control] in oats: +

## CCCO[C@]12CC[C@@H]3[C@](C[C@H]1C)(C2)[C@@H](C(=O)O)[C@H]1[C@@]32CC=C[C@]1(C)C(=O)O2 [Comp. IX, exo-16,17-Dihydro-GA5-13-n-propyl ether]
rye
  Shoot length reduction [activity, relative to control] in rye: ++
[1]
  shoot length reduction compared with compounds II to V: superior to compounds II to V
rice
  Shoot length reduction [activity, relative to control] in rice: ++
barley
  Shoot length reduction [activity, relative to control] in barley: ++
wheat
  Shoot length reduction [activity, relative to control] in wheat: ++
oats
  Shoot length reduction [activity, relative to control] in oats: ++

## CCOC(=O)C1CC(=O)C(=C(O)C2CC2)C(=O)C1 (centres unmarked) [S5, trinexapac-ethyl, reference compound]
[1]
  dosages needed to obtain results equivalent to compounds VI, VII, and IX: approximately 20 times higher
[2]; 30 g/ha a.i., 13 days after treatment
  % Shoot height reduction Actual: 14%

## C[N+](C)(C)CCCl [S2, chlormequat chloride, reference compound]
[3]; 750 g/ha a.i.
  % Shoot height reduction Actual: 11%
[3]; 1500 g/ha a.i.
  % Shoot height reduction Actual: 10%
[1]
  activity-enhancing effects of ethoxylated castor oil R 15: not or only at a far lower degree found
  activity in the other plant species compared with wheat: significantly less active
barley; [5]
  Shoot length [% of control] Barley: 94 % of control
barley; 750 g/ha ai, no adjuvant
  Shoot length [% of control] Barley: 94 % of control
wheat; [5]
  Shoot length [% of control] Wheat: 75 % of control
wheat; 750 g/ha ai, no adjuvant
  Shoot length [% of control] Wheat: 83 % of control
wheat
  dosages of active ingredient needed to obtain results equivalent to compounds VI, VII, and IX: approximately 100 times higher

## CC1CC23CC1(O)CCC2C12CC=CC(C)(C(=O)O1)C2C3C(=O)O (stereo not drawn) [Comp. II, exo-16,17-Dihydro-GA5]
rye
  Shoot length reduction [activity, relative to control] in rye: ++
barley
  Shoot length reduction [activity, relative to control] in barley: +
wheat
  Shoot length reduction [activity, relative to control] in wheat: +
oats
  Shoot length reduction [activity, relative to control] in oats: 0

## CC(=O)OC12CCC3C(CC1C)(C2)C(C(=O)O)C1C2(C)C=CCC13OC2=O (stereo not drawn) [Comp. VI, endo-16,17-Dihydro-GA5-13-acetate]
rye
  Shoot length reduction [activity, relative to control] in rye: +++
[1]
  shoot length reduction compared with compounds II to V: superior to compounds II to V
rice
  Shoot length reduction [activity, relative to control] in rice: +++
barley
  Shoot length reduction [activity, relative to control] in barley: +++
barley; 1.6 g/ha ai
  Shoot length Barley [% of control]: 95 % of control
barley; 3.1 g/ha ai
  Shoot length Barley [% of control]: 84 % of control
barley; 6.3 g/ha ai
  Shoot length Barley [% of control]: 65 % of control
barley; 12.5 g/ha ai
  Shoot length Barley [% of control]: 53 % of control
wheat
  Shoot length reduction [activity, relative to control] in wheat: +++
wheat; 1.6 g/ha ai
  Shoot length Wheat [% of control]: 88 % of control
wheat; 3.1 g/ha ai
  Shoot length Wheat [% of control]: 88 % of control
wheat; 6.3 g/ha ai
  Shoot length Wheat [% of control]: 68 % of control
wheat; 12.5 g/ha ai
  Shoot length Wheat [% of control]: 64 % of control
oats
  Shoot length reduction [activity, relative to control] in oats: ++

## prohexadione-Ca [S4, reference compound]
[1]
  dosages needed to obtain results equivalent to compounds VI, VII, and IX: approximately 20 times higher
[2]; 30 g/ha a.i., 21 days after treatment
  % Shoot height reduction Actual: 6%
[2]; 60 g/ha a.i., 21 days after treatment
  % Shoot height reduction Actual: 15%

## C=C1C[C@]23C[C@@]1(O)CC[C@H]2[C@@]12C=C[C@H](O)[C@@](C)(C(=O)O1)[C@H]2[C@@H]3C(=O)O (single isomer, unassigned; ent-3) [S6, ent-3α,10,13-trihydroxy-20-norgiberrell-1,16-diene-7,19-dioic acid 19,10-lactone, reference compound]
[4]; S6 1.25 g/ha ai
  Shoot growth Waito C [% of Control]: 115 % of Control
  Shoot growth Tan-ginbozu [% of Control]: 128 % of Control
  Shoot growth Koshihikari [% of Control]: 109 % of Control
[4]; S6 2.50 g/ha ai
  Shoot growth Waito C [% of Control]: 143 % of Control
  Shoot growth Tan-ginbozu [% of Control]: 160 % of Control
  Shoot growth Koshihikari [% of Control]: 112 % of Control
[4]; S6 5.00 g/ha ai
  Shoot growth Waito C [% of Control]: 190 % of Control
  Shoot growth Tan-ginbozu [% of Control]: 186 % of Control
  Shoot growth Koshihikari [% of Control]: 124 % of Control

## endo-16,17-Dihydro-GA5 [Comp. III]
rye
  Shoot length reduction [activity, relative to control] in rye: +++
barley
  Shoot length reduction [activity, relative to control] in barley: ++
wheat
  Shoot length reduction [activity, relative to control] in wheat: ++
oats
  Shoot length reduction [activity, relative to control] in oats: 0

## O=P(O)(O)CCCl [S1, ethephon, reference compound]
[1]
  activity-enhancing effects of ethoxylated castor oil R 15: not or only at a far lower degree found
  dosages needed to obtain results equivalent to compounds VI, VII, and IX: approximately 20 times higher
barley; [6]
  Shoot length [% of control] Barley: 101 % of control
barley; 250 g/ha ai, no adjuvant
  Shoot length [% of control] Barley: 95 % of control
wheat; [6]
  Shoot length [% of control] Wheat: 92 % of control
wheat; 250 g/ha ai, no adjuvant
  Shoot length [% of control] Wheat: 93 % of control
